Data as given in ChEMBL document CHEMBL3727350, “Agents and methods for treating ischemic and other diseases” (2014).
Active and inactive are the calls of the source. The rule behind the calls is not given here.

What was measured:
[1] = Inhibition of cell proliferation of human […] cells at 10 uM incubated for 48 to 96 hrs; format: functional; settings: RXF 393
MDA-MB-231 [2] = test: Inhibition of cell proliferation of human MDA-MB-231 cells at 10 uM incubated for 48 to 96 hrs; format: functional
[3] = molecular target: Transient receptor potential cation channel subfamily M member 7 (Mus musculus) (UniProt Q923J1); test: Inhibition of Tet-induced Flag-tagged mouse TRPM7 expressed in HEK293 cells assessed as reduction in channel currents at 0.3 to 30 uM by whole cell patch clamp assay; format: cell-based
Transient receptor potential cation channel subfamily M member 7 (Mus musculus), sequence (Q923J1 whole entry): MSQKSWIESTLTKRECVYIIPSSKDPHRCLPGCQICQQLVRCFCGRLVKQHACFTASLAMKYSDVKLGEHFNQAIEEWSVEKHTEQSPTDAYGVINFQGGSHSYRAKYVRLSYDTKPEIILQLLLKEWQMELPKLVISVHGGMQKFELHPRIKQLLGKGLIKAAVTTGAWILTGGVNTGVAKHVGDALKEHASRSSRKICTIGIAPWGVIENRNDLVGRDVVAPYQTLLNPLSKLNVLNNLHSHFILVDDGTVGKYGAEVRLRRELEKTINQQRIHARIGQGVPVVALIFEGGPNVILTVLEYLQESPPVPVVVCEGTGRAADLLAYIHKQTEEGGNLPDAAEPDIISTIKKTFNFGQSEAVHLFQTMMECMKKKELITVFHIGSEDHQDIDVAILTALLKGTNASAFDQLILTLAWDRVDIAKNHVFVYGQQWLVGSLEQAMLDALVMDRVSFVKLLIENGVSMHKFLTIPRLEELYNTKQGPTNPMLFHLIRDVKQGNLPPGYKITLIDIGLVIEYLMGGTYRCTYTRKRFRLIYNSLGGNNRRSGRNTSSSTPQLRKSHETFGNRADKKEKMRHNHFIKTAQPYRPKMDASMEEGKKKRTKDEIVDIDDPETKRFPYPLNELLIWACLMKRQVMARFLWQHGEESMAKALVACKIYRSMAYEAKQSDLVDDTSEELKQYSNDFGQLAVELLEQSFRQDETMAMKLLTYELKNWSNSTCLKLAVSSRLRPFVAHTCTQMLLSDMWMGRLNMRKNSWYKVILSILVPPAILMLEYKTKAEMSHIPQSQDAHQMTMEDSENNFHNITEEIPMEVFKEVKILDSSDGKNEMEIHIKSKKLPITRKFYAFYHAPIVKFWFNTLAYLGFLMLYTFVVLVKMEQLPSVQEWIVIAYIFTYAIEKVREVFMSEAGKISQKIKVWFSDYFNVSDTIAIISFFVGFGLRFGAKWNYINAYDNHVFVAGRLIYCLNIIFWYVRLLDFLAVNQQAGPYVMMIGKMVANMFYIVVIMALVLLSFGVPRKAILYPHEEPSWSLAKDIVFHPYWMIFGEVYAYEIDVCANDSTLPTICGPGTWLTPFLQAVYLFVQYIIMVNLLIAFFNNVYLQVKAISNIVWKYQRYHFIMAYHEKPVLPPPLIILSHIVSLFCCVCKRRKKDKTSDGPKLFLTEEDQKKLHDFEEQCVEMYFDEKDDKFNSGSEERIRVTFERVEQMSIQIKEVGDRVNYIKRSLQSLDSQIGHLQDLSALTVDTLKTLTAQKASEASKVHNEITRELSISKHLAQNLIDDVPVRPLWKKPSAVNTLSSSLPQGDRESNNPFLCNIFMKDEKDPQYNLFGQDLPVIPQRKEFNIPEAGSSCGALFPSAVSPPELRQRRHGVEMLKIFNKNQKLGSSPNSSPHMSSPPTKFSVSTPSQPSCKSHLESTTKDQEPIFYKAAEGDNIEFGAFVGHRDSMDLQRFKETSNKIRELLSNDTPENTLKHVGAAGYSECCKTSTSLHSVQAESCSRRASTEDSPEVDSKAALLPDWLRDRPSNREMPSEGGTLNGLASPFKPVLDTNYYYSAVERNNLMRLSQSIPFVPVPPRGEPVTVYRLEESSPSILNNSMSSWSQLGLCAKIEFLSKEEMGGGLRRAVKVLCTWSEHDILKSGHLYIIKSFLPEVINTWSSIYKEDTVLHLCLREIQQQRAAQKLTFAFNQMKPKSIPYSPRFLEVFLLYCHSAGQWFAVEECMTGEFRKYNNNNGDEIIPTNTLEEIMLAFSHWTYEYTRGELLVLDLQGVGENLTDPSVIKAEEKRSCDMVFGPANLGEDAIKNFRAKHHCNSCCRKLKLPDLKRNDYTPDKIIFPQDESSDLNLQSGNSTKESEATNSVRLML

[4] = molecular target: Transient receptor potential cation channel subfamily M member 7 (Rattus norvegicus) (UniProt Q925B3); test: Inhibition of TRPM7 in rat H9C2 cells exposed to oxygen glucose deprivation condition for 1 to 6 hrs assessed as reduction in TRPM7-mediated anoxic cell death in presence of 1 uM nifedipine by propidium iodide uptake assay; format: cell-based
Transient receptor potential cation channel subfamily M member 7 (Rattus norvegicus), sequence (Q925B3 whole entry): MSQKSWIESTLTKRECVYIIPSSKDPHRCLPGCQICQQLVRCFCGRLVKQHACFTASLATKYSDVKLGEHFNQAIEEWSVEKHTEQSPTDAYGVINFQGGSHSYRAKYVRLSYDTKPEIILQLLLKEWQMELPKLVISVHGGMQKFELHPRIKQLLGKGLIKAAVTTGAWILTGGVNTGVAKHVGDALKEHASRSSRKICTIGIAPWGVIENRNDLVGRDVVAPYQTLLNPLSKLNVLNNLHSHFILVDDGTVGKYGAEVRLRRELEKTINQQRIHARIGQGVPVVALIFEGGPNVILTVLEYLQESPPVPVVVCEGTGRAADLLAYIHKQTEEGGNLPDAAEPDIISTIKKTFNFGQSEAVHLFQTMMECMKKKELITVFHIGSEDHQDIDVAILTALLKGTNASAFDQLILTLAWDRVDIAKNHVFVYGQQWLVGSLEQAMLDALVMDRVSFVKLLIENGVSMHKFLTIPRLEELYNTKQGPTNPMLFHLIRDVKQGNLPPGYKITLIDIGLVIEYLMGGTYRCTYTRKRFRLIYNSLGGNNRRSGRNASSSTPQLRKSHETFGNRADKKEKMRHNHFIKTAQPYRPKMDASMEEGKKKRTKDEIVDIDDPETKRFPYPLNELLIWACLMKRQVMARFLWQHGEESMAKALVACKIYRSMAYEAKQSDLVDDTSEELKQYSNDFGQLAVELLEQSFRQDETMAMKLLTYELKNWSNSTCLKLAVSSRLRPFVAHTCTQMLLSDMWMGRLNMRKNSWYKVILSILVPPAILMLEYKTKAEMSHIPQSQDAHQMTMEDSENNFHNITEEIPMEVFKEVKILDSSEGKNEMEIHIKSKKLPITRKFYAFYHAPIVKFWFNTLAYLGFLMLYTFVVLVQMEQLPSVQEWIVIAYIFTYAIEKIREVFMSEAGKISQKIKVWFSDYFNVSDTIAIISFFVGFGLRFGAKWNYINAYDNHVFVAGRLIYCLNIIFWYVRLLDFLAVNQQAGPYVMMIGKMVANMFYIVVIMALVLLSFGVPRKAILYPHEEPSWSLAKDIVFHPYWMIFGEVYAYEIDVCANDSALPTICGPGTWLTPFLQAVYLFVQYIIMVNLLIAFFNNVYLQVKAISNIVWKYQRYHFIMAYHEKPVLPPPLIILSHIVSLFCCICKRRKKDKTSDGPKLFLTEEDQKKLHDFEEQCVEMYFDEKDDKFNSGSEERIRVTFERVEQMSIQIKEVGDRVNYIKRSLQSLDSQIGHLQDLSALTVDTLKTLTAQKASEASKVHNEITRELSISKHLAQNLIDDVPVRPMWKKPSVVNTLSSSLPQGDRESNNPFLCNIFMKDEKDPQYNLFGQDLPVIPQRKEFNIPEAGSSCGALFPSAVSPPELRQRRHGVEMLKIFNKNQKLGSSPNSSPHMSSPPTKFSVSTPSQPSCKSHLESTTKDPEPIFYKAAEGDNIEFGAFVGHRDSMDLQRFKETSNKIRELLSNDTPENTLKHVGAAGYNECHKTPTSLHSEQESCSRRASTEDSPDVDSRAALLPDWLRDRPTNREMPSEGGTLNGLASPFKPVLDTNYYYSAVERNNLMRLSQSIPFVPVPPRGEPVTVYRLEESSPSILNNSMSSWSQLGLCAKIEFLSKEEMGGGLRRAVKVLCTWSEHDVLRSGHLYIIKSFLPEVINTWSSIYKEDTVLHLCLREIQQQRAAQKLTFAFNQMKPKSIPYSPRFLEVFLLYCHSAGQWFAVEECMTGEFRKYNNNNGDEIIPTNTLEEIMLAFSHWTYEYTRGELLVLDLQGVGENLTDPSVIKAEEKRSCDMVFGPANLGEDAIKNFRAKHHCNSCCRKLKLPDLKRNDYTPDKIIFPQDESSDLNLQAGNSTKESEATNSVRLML

[5] = molecular target: Transient receptor potential cation channel subfamily M member 7 (Rattus norvegicus) (UniProt Q925B3); test: Inhibition of TRPM7 in rat H9C2 cells assessed as reduction in channel currents at 0.3 to 30 uM by whole cell patch clamp assay; format: cell-based
MDA-MB-231 [6] = test: Inhibition of cell proliferation of human MDA-MB-231 cells at 1.25 to 10 uM incubated for 72 hrs by SRB assay; format: functional, cell-based
SW13 [7] = test: Inhibition of cell proliferation of human SW13 cells at 10 uM incubated for 48 to 96 hrs; format: functional
[8] = molecular target: Transient receptor potential cation channel subfamily M member 7 (Mus musculus) (UniProt Q923J1); test: Inhibition of TRPM7 in mouse primary neuronal cells exposed to oxygen glucose deprivation condition for 1 to 3 hrs assessed as reduction in TRPM7-mediated anoxic cell death dosed before oxygen glucose deprivation condition by propidium iodide uptake assay; settings: Primary neuron
B16-F1 = test: Inhibition of cell proliferation of mouse B16-F1 cells at 1.25 to 10 uM incubated for 72 hrs by SRB assay; format: functional, cell-based
A-375 = test: Inhibition of cell proliferation of human A375 cells at 10 uM incubated for 48 to 96 hrs; format: functional
[9] = molecular target: Transient receptor potential cation channel subfamily M member 7 (Mus musculus) (UniProt Q923J1); test: Inhibition of TRPM7 in mouse mouse primary cortical neurons exposed to 2 hrs oxygen glucose deprivation condition assessed as reduction in TRPM7-mediated anoxic cell death at 0.625 to 5 uM pre-incubated for 24 hrs before OGD measured after 20 hrs by propidium iodide uptake assay; format: cell-based; settings: Cerebral cortex neuron
HeLa [10] = test: Inhibition of cell proliferation of human HeLa cells at 10 uM incubated for 48 to 96 hrs; format: functional
Y79 [11] = test: Inhibition of cell proliferation of human Y79 cells at 1 uM to 7.5 uM by MTT assay; format: functional, cell-based
Y79 [12] = test: Reduction in cell viability in human Y79 cells on rat retinal explants at 5 uM; format: functional, cell-based
[13] = Inhibition of cell proliferation of mouse NIH/3T3 cells at 1.25 to 10 uM incubated for 72 hrs by propidium iodide staining assay; format: cell-based; settings: nih3t3, 72 h
WERI [14] = test: Inhibition of cell migration of human WERI cells assessed as reduction in cell ability to migrate away from retina in cultured explants at 1 uM; format: functional, cell-based
[15] = molecular target: Transient receptor potential cation channel subfamily M member 7 (Mus musculus) (UniProt Q923J1); test: Inhibition of TRPM7 in mouse mouse primary cortical neurons exposed to 2 hrs oxygen glucose deprivation condition assessed as reduction in TRPM7-mediated anoxic cell death measured after 20 hrs by propidium iodide uptake assay; format: cell-based; settings: Cerebral cortex neuron
[16] = Inhibition of cell proliferation of human WERI cells at 10 uM incubated for 48 to 96 hrs; format: functional
[17] = Inhibition of cell proliferation of human HCT116 cells at 10 uM incubated for 48 to 96 hrs; format: functional; settings: HCT-116
[18] = Cytotoxic activity against mouse primary cortical neurons assessed as reduction in cell viability at 1 to 7.5 uM incubated for 48 to 72 hrs by MTT assay; format: cell-based; settings: cerebral cortex neuron
[19] = molecular target: Transient receptor potential cation channel subfamily M member 7 (Mus musculus) (UniProt Q923J1); test: Inhibition of TRPM7 in mouse primary neuronal cells exposed to oxygen glucose deprivation condition for 1 to 3 hrs assessed as reduction in TRPM7-mediated anoxic cell death dosed after oxygen glucose deprivation condition by propidium iodide uptake assay; settings: Primary neuron
B16-F10 [20] = test: Inhibition of cell proliferation of mouse B16F10 cells at 1.25 to 10 uM incubated for 72 hrs by SRB assay; format: functional, cell-based
SW13 [21] = test: Inhibition of cell proliferation of human SW13 cells at 1.25 to 10 uM incubated for 48 hrs by BrdU incorporation assay; format: functional, cell-based
MCF7 = test: Inhibition of cell proliferation of human MCF7 cells at 10 uM incubated for 48 to 96 hrs; format: functional
[22] = Inhibition of cell proliferation of mouse B16F10 cells at 10 uM incubated for 48 to 96 hrs; format: functional; settings: B16-F10
[23] = molecular target: Transient receptor potential cation channel subfamily M member 7 (Mus musculus) (UniProt Q923J1); test: Inhibition of Tet-induced Flag-tagged mouse TRPM7 expressed in HEK293 cells assessed as reduction in channel currents at 2 mM using compound applied intracellularly by whole cell patch clamp assay; format: cell-based
B16-F10 [24] = test: Antitumor activity against mouse B16F10 cells implanted in mouse assessed as inhibition of tumor growth at 20 mg/kg, iv qd; format: functional, organism-based
[25] = Toxicity in mouse assessed as maximum tolerated dose; format: organism-based; settings: in vivo
[26] = Inhibition of cell proliferation of mouse B16-F1 cells at 10 uM incubated for 48 to 96 hrs; format: functional
HeLa [27] = test: Inhibition of cell proliferation of human HeLa cells at 1.25 to 10 uM incubated for 48 hrs by BrdU incorporation assay; format: functional, cell-based
NCI-H292 = test: Inhibition of cell proliferation of human NCI-H292 cells at 10 uM incubated for 48 to 96 hrs; format: functional
[28] = Inhibition of cell proliferation of human DMS456 cells at 10 uM incubated for 48 to 96 hrs; format: functional
WERI [29] = test: Inhibition of cell proliferation of human WERI cells at 0.25 uM to 10 uM by MTT assay; format: functional, cell-based
RXF 393 = test: Antitumor activity against human RXF393 cells implanted in mouse assessed as inhibition of tumor growth at 20 mg/kg, iv qd; format: functional, organism-based
Y79 [30] = test: Inhibition of cell migration of human Y79 cells assessed as reduction in cell ability to migrate away from retina in cultured explants at 5 uM; format: functional, cell-based
SW13 [31] = test: Inhibition of cell proliferation of human SW13 cells at 1.25 to 10 uM incubated for 72 hrs by SRB assay; format: functional, cell-based
[32] = molecular target: Transient receptor potential cation channel subfamily M member 7 (Mus musculus) (UniProt Q923J1); test: Inhibition of Tet-induced Flag-tagged mouse TRPM7 expressed in HEK293 cells assessed as inhibition of channel-mediated cell death in presence of Mg2+ incubated for 24 to 48 hrs by propidium iodide uptake assay; format: cell-based; set-up: concentration or dose not given beside the values
U2OS = test: Inhibition of cell proliferation of human U2OS cells at 10 uM incubated for 48 to 96 hrs; format: functional
[33] = Inhibition of cell proliferation of human DMS53 cells at 10 uM incubated for 48 to 96 hrs; format: functional; settings: DMS-53
[34] = molecular target: Transient receptor potential cation channel subfamily M member 7 (Mus musculus) (UniProt Q923J1); test: Inhibition of Tet-induced Flag-tagged mouse TRPM7 expressed in HEK293 cells assessed as reduction in channel currents at 2 mM using compound applied extracellularly by whole cell patch clamp assay; format: cell-based
Y79 [35] = test: Inhibition of cell proliferation of human Y79 cells at 10 uM incubated for 48 to 96 hrs; format: functional

## COc1cc2c(cc1OC)C(c1sc3ccccc3c1Cl)=NCC2
[1]
  inhibition at 10 µM: > 20%
MDA-MB-231 [2]
  inhibition at 10 µM: > 20%
[3]
  inhibition: Active
[4]
  inhibition: Active
[5]
  inhibition: Active
MDA-MB-231 [6]
  inhibition: Active
SW13 [7]
  inhibition at 10 µM: > 20%
[8]
  inhibition: Active
B16-F1
  inhibition: Active
A-375
  inhibition at 10 µM: > 20%
[9]
  inhibition: Active
HeLa [10]
  inhibition at 10 µM: > 20%
Y79 [11]
  inhibition: Active
Y79 [12]
  inhibition: Active
[13]
  Activity: Non-toxic
WERI [14]
  inhibition: Active
[15]
  inhibition: Active
[16]
  inhibition at 10 µM: > 20%
[17]
  inhibition at 10 µM: > 20%
[18]
  Activity: Non-toxic
[19]
  inhibition: Active
B16-F10 [20]
  inhibition: Active
SW13 [21]
  inhibition: Active
MCF7
  inhibition at 10 µM: > 20%
[22]
  inhibition at 10 µM: > 20%
[23]
  inhibition: inactive
B16-F10 [24]
  TGI: Active
[25]
  MTD: < 20 mg/kg
[26]
  inhibition at 10 µM: > 20%
HeLa [27]
  inhibition: Active
NCI-H292
  inhibition at 10 µM: > 20%
[28]
  inhibition at 10 µM: > 20%
WERI [29]
  inhibition: Active
RXF 393
  TGI: Active
Y79 [30]
  inhibition: Active
SW13 [31]
  inhibition: Active
[32]
  inhibition: Active
U2OS
  inhibition at 10 µM: > 20%
[33]
  inhibition at 10 µM: > 20%
[34]
  inhibition: Active
Y79 [35]
  inhibition at 10 µM: > 20%
